PMC12090182, “Repurposing of the RIPK1-Selective Benzo[1,4]oxazepin-4-one Scaffold for the Development of a Type III LIMK1/2 Inhibitor” (ACS Chemical Biology, 2025)
Read-outs that look alike come from different tables or passages of the source.

Assays:
Type in all cases: cell-based
HEK293T cells = conditions: human
Method: (§1) To assess the influence on cell health, a high-content screening in living cells called the multiplex high-content assay, as described previously by Tjaden et al., was performed.[38] In brief, HEK293T (ATCC CRL-1573) and U2OS (ATCCHTB-96) were cultured in DMEM plus L-glutamine (high glucose) supplemented by 10% FBS (Gibco) and penicillin/streptomycin (Gibco). MRC-9 fibroblasts ([…]) were cultured in EMEM plus L-glutamine supplemented by 10% FBS (Gibco) and penicillin/streptomycin (Gibco). Cells were seeded at a density of 1250 cells per well in a 384-well plate in a culture medium (cell culture microplate, PS, f-bottom, μClear, 781091, Greiner), with a volume of 50 μL per well. All outer wells were filled with 100 μL of PBS buffer (Gibco). […] The cell shape and fluorescence were measured before treatment and 12, 24, and 48 h after compound treatment using the CQ1 high-content confocal microscope (Yokogawa, Musashino, Japan). […] The compounds were tested at 1 and 10 μM, respectively. Acquired images of the cells were processed using Yokogawa CellPathfinder software (v3.04.02.02). […] Results were normalized to cells exposed to 0.1% DMSO. All compounds were tested in biological duplicates, and SEM (standard error of mean) was calculated of biological duplicates.

U2OS cells = conditions: human, 24 h, 1 µM
Method: as §1

MRC-9 cells = experiment: Multiplex high-content viability assessment; conditions: human fibroblast
Method: as §1

[1] = 1 µM, 0 h, biological replicate 1
[2] = 1 µM, 12 h, biological replicate 1
[3] = 1 µM, 24 h, biological replicate 1
[4] = 1 µM, 48 h, biological replicate 1
[5] = 1 µM, 0 h after treatment, biological replicate 2
[6] = 1 µM, 12 h after treatment, biological replicate 2
[7] = 1 µM, 24 h after treatment, biological replicate 2
[8] = 1 µM, 48 h after treatment, biological replicate 2
[9] = 10 µM, 0 h, biological replicate 1
[10] = 10 µM, 12 h, biological replicate 1
[11] = 10 µM, 24 h, biological replicate 1
[12] = 10 µM, 48 h, biological replicate 1
[13] = 10 µM, 0 h after treatment, biological replicate 2
[14] = 10 µM, 12 h after treatment, biological replicate 2
[15] = 10 µM, 24 h after treatment, biological replicate 2
[16] = 10 µM, 48 h after treatment, biological replicate 2

## CCCCN(Cc1ccccc1)C(=O)c1ccc(S(=O)(=O)Nc2ccccc2)cc1 [TH257]
HEK293T cells; 0 h, 1 µM
  Population with membrane disruption (%): 0.00%
HEK293T cells; 0 h, 10 µM
  Population with membrane disruption (%): 0.00%
HEK293T cells; 24 h, 10 µM
  Population with membrane disruption (%): 0.00%
U2OS cells
  Cell count per well: 316
MRC-9 cells; [1]
  Cell count normalized to cells treated with DMSO control: 1.114
  Cell count per well: 167
  Population Fragmented Nuclei (%): 8.59%
  Population Healthy Nuclei (%): 70.55%
  Population Pyknosed Nuclei (%): 20.86%
  Population apoptotic cell (%): 41.18%
  Population cell that influence microtubule strucutre (%): 18.26%
  Population with increased mitochondrial mass (%): 10.43%
  Population with membrane disruption (%): 0.87%
MRC-9 cells; [2]
  Cell count normalized to cells treated with DMSO control: 1.0759
  Cell count per well: 162
  Population Fragmented Nuclei (%): 8.18%
  Population Healthy Nuclei (%): 74.84%
  Population Pyknosed Nuclei (%): 16.98%
  Population apoptotic cell (%): 37.04%
  Population cell that influence microtubule strucutre (%): 23.53%
  Population with increased mitochondrial mass (%): 5.88%
  Population with membrane disruption (%): 1.68%
MRC-9 cells; [3]
  Cell count normalized to cells treated with DMSO control: 1.074
  Cell count per well: 162
  Population Fragmented Nuclei (%): 8.86%
  Population Healthy Nuclei (%): 76.58%
  Population Pyknosed Nuclei (%): 14.56%
  Population apoptotic cell (%): 43.48%
  Population cell that influence microtubule strucutre (%): 23.97%
  Population with increased mitochondrial mass (%): 5.79%
  Population with membrane disruption (%): 0.00%
MRC-9 cells; [4]
  Cell count normalized to cells treated with DMSO control: 1.094
  Cell count per well: 166
  Population Fragmented Nuclei (%): 14.56%
  Population Healthy Nuclei (%): 76.58%
  Population Pyknosed Nuclei (%): 8.86%
  Population apoptotic cell (%): 64.29%
  Population cell that influence microtubule strucutre (%): 20.66%
  Population with increased mitochondrial mass (%): 0.83%
  Population with membrane disruption (%): 0.83%
MRC-9 cells; [5]
  Cell count normalized to cells treated with DMSO control: 1.076
  Cell count per well: 192
  Population Fragmented Nuclei (%): 13.26%
  Population Healthy Nuclei (%): 56.35%
  Population Pyknosed Nuclei (%): 30.39%
  Population apoptotic cell (%): 34.55%
  Population cell that influence microtubule strucutre (%): 45.10%
  Population with increased mitochondrial mass (%): 3.92%
  Population with membrane disruption (%): 7.84%
MRC-9 cells; [6]
  Cell count normalized to cells treated with DMSO control: 1.0446
  Cell count per well: 174
  Population Fragmented Nuclei (%): 19.08%
  Population Healthy Nuclei (%): 51.97%
  Population Pyknosed Nuclei (%): 28.95%
  Population apoptotic cell (%): 25.00%
  Population cell that influence microtubule strucutre (%): 64.56%
  Population with increased mitochondrial mass (%): 13.92%
  Population with membrane disruption (%): 7.59%
MRC-9 cells; [7]
  Cell count normalized to cells treated with DMSO control: 0.9402
  Cell count per well: 155
  Population Fragmented Nuclei (%): 16.78%
  Population Healthy Nuclei (%): 57.34%
  Population Pyknosed Nuclei (%): 25.87%
  Population apoptotic cell (%): 35.14%
  Population cell that influence microtubule strucutre (%): 70.73%
  Population with increased mitochondrial mass (%): 4.88%
  Population with membrane disruption (%): 13.41%
MRC-9 cells; [8]
  Cell count per well: 166
  Population Fragmented Nuclei (%): 32.10%
  Population Healthy Nuclei (%): 49.38%
  Population Pyknosed Nuclei (%): 18.52%
  Population apoptotic cell (%): 50.00%
  Population cell that influence microtubule strucutre (%): 76.25%
  Population with increased mitochondrial mass (%): 3.75%
  Population with membrane disruption (%): 8.75%
MRC-9 cells; [9]
  Cell count normalized to cells treated with DMSO control: 1.048
  Cell count per well: 157
  Population Fragmented Nuclei (%): 18.47%
  Population Healthy Nuclei (%): 59.24%
  Population Pyknosed Nuclei (%): 22.29%
  Population apoptotic cell (%): 34.29%
  Population cell that influence microtubule strucutre (%): 23.66%
  Population with increased mitochondrial mass (%): 3.23%
  Population with membrane disruption (%): 0.00%
MRC-9 cells; [10]
  Cell count normalized to cells treated with DMSO control: 1.149
  Cell count per well: 173
  Population Fragmented Nuclei (%): 12.35%
  Population Healthy Nuclei (%): 58.02%
  Population Pyknosed Nuclei (%): 29.63%
  Population apoptotic cell (%): 35.42%
  Population cell that influence microtubule strucutre (%): 80.85%
  Population with increased mitochondrial mass (%): 13.83%
  Population with membrane disruption (%): 4.26%
MRC-9 cells; [11]
  Cell count normalized to cells treated with DMSO control: 1.094
  Cell count per well: 165
  Population Fragmented Nuclei (%): 16.25%
  Population Healthy Nuclei (%): 66.25%
  Population Pyknosed Nuclei (%): 17.50%
  Population apoptotic cell (%): 57.14%
  Population cell that influence microtubule strucutre (%): 88.68%
  Population with increased mitochondrial mass (%): 11.32%
  Population with membrane disruption (%): 1.89%
MRC-9 cells; [12]
  Cell count normalized to cells treated with DMSO control: 1.18
  Cell count per well: 179
  Population Fragmented Nuclei (%): 23.84%
  Population Healthy Nuclei (%): 63.37%
  Population Pyknosed Nuclei (%): 12.79%
  Population apoptotic cell (%): 72.73%
  Population cell that influence microtubule strucutre (%): 85.32%
  Population with increased mitochondrial mass (%): 20.18%
  Population with membrane disruption (%): 0.92%
MRC-9 cells; [13]
  Cell count normalized to cells treated with DMSO control: 0.8298
  Cell count per well: 148
  Population Fragmented Nuclei (%): 24.82%
  Population Healthy Nuclei (%): 45.39%
  Population Pyknosed Nuclei (%): 29.79%
  Population apoptotic cell (%): 47.62%
  Population cell that influence microtubule strucutre (%): 40.63%
  Population with increased mitochondrial mass (%): 9.38%
  Population with membrane disruption (%): 3.13%
MRC-9 cells; [14]
  Cell count normalized to cells treated with DMSO control: 0.8645
  Cell count per well: 144
  Population Fragmented Nuclei (%): 24.46%
  Population Healthy Nuclei (%): 56.83%
  Population Pyknosed Nuclei (%): 18.71%
  Population apoptotic cell (%): 50.00%
  Population cell that influence microtubule strucutre (%): 86.08%
  Population with increased mitochondrial mass (%): 13.92%
  Population with membrane disruption (%): 12.66%
MRC-9 cells; [15]
  Cell count normalized to cells treated with DMSO control: 0.8917
  Cell count per well: 147
  Population Fragmented Nuclei (%): 25.18%
  Population Healthy Nuclei (%): 59.71%
  Population Pyknosed Nuclei (%): 15.11%
  Population apoptotic cell (%): 57.14%
  Population cell that influence microtubule strucutre (%): 91.57%
  Population with increased mitochondrial mass (%): 19.28%
  Population with membrane disruption (%): 4.82%
MRC-9 cells; [16]
  Cell count normalized to cells treated with DMSO control: 0.964
  Cell count per well: 157
  Population Fragmented Nuclei (%): 30.32%
  Population Healthy Nuclei (%): 59.35%
  Population Pyknosed Nuclei (%): 10.32%
  Population apoptotic cell (%): 56.25%
  Population cell that influence microtubule strucutre (%): 89.13%
  Population with increased mitochondrial mass (%): 18.48%
  Population with membrane disruption (%): 0.00%
